# Like-named read-outs stand apart in the source and are kept apart here.
# Legend:
# [1] = system: LPS-induced TNFα production in mouse peritoneal macrophages; assay: LPS-induced TNFα production in mouse peritoneal macrophages (ELISA); format: cell-based; conditions: Mus musculus, Peritoneal macrophage, 24 h, mouse peritoneal macrophages, 100 ng/ml LPS 24 h; measured twice, mean ± standard deviation; read-out: IC50, dose-dependent inhibition of TNFα production in macrophages
# Procedure: To isolate peritoneal macrophages, male Balb/c mice were intraperitoneally injected with 2 ml of 3.5% sterile thioglycolate (B D, Sparks, Md., USA) 4 days before being sacrificed. Mice were sacrificed by cervical dislocation, and peritoneal secretory cells were aseptically isolated through peritoneal washing with cold DMEM (HyClone, Logan, Utah, USA) containing 10% FBS (fetal bovine serum; HyClone) and 1% penicillin-streptomycin. After centrifugation, cells were resuspended and counted using a TC20 Cell Counter (Bio-Rad Laboratories, Hercules, Calif., USA). Peritoneal secretory cells were left in a 24-well plate overnight at 37° C., and non-adherent cells were removed. The cells were then stimulated with 100 ng/ml lipopolysaccharide (LPS) for 24 hours. The supernatant was collected during cytokine analysis, and the level of TNFα in the supernatant was measured using BD OptEIA mouse ELISA sets (BD Biosciences, San Diego, Calif., USA) according to the manufacturer's protocol. […] IC50 (μM) values were measured twice, respectively, and expressed as mean±standard deviation.
# [2] = Physicochemical properties (pKa, logP, solubility)
# From the text: Compound 1 is butein and the therapeutic effect on lymphedema thereof is disclosed in Korean Patent Publication No. 10-1533197 (published on Jul. 2, 2015).
# [3] = Pharmacokinetic analysis in mice after I.V. and oral administration; format: in vivo, mouse; conditions: male CD-1 mice; for Cmax: read-out: Cmax (maximum plasma concentration)
# Procedure: Compounds were administered to 5-week-old male CD-1 mice through 1 mg/kg tail vein administration (administration volume of 5 mL/kg), 20 mg/kg oral administration, and 100 mg/kg oral administration, respectively. Three mice were used for each independent experiment. Blood samples were taken in an amount of 20 μL to 30 μL via the saphenous vein at 5, 15, 30, 60, 120, 180, 360, and 1440 minutes.
# In addition, pharmacokinetic parameters were calculated from non-compartmental analysis using Win Non-lin.
# In Table 3, T1/2 denotes the terminal half-life, Cmax denotes the maximum plasma concentration, AUC-O denotes the area under the plasma concentration-time curve from time zero to infinity, and indicates exposure concentration of whole blood, and BA represents bioavailability expressed as (AUCpo/AUCiv)×100. […] Cmax and AUC∞ are mean±SD values obtained from three male ICR mice. Regarding blood exposure during systemic circulation of the compound, the compound was orally administered at an amount of 100 mg/kg, and then, AUC (area under the curve) was measured, and the obtained measurements were compared.
# [4] = system: lymphedema induced in mice; assay: Prophylactic effect on lymphedema formation, surgically induced murine lymphedema model (volume); format: in vivo, mouse; conditions: 7th day after surgery, oral administration 7 days before surgery, then once every two days, vs control group
# Procedure: All animal tests in the following examples were performed after obtaining approvals by the Institutional Animal Care and Use Committee (IACUC) of Sungkyunkwan University School of Medicine (Approval No.: […]-20150037). All methods were performed according to the approved guidelines. […] Briefly, major lymphatic sites including inguinal lymph nodes, popliteal lymph nodes, deep inguinal lymph nodes and femoral lymphatic vessels were removed, and the lower right leg of the mouse was limitedly cauterized under anesthesia.
# Compounds 1, 7m, and 14a were each orally administered to mice for 7 days before surgical induction of lymphedema in mice.
# On the other hand, in the control group, the compound 1 treatment group, the compound 7m treatment group, and the compound 14a treatment group, lymphedema was induced through surgery. After surgery, the compounds were administered once every two days.
# The volume of lymphedema was measured on the 7th day after surgery, and the size of the lymphedema was recorded using a caliper ruler by a person who was blinded to the treatment status of the mice.
# lymphedema tissue = assay: Histological (H&E) analysis of lymphedema tissue of the right hind leg; format: in vivo; conditions: 7th day after surgery, right hind leg of mouse
# From the text: (§1) Tissue samples were collected on the 7th day after surgery to induce lymphedema at a location 15 mm-25 mm from the right leg of the mouse. The harvested tissue samples were fixed with 10% formalin solution, and the specimens were cut to a thickness of 5 μm. Sections were deparaffinized in 100% xylene, rehydrated with a series of 100% ethanol, 95% ethanol, 90% ethanol, 80% ethanol, and 70% ethanol, and washed with water. Sections were reacted with hematoxylin solution at room temperature. After washing in PBS, sections were stained with eosin at room temperature. Images were acquired by a Pannoramic viewer microscope (3[…] Ltd., Hungary). Prepared slides were incubated using anti-mouse PPARγ (Santa Cruz Biotechnology, USA) and Alexa Fluor 488 and DAPI (Life Technologies, USA). Samples were analyzed using a Nikon ECLIPSE 80i microscope (Nikon Instruments Inc., Japan).
# In FIG. 3A, the scale bar of the upper panel is 500 μm, and the scale bar of the lower panel is 100 μm.
# In FIG. 4A, the scale bar of the upper panel is 200 μm, and the scale bar of the lower panel is 100 μm.
# TNFα = assay: mRNA expression of TNFα in lymphedema tissue; format: in vivo; conditions: 7th day after surgery, mouse
# From the text: As a result, it was confirmed that the expression level of TNFα mRNA was decreased in the compound 1 treatment group and the compound 14a treatment group (with respect to the control group, *: P<0.05; with respect to compound 1, #: P<0.05).
# PPARγ = assay: Immunofluorescence staining of PPARγ in epidermal layer of lymphedema tissue; format: in vivo; conditions: mouse
# From the text: as §1
# In addition, peroxisome […] (PPARγ) is a major regulator of lipogenesis, and as shown in FIG. 4B showing the results of immunofluorescence staining, the distribution of PPARγ in the epidermal layer of lymphedema tissue after treatment with compound 1 and compound 14a was suppressed.
# [5] = system: PPARγ and a target protein Fabp4; assay: Expression of PPARγ and Fabp4 in lymphedema tissue (western blot, mRNA); format: in vivo; conditions: mouse
# [6] = mouse, plasma, iv, I.V, 1 mg/Kg
# [7] = mouse, plasma, po, P.O, 20 mg/Kg
smiles,measurement,setting,value
"O=C(Oc1cc(O)ccc1C(=O)/C=C/c1ccc(O)c(O)c1)c1ccccc1 [compound 14a, (E)-2-(3-(3,4-dihydroxyphenyl)acryloyl)-5-hydroxyphenyl benzoate]",IC50,[1],14.6 ± 1.56 µM
same,logP (partition coefficient),[2],3.47
same,solubility,"[2]; water solubility, read-out: Solubility",136 µg/mL
same,T1/2 (terminal half-life),"[3]; I.V, 1 mg/Kg",81.6 min
same,Tmax,"[3]; I.V, 1 mg/Kg",12 min
same,T1/2 (terminal half-life),"[3]; P.O, 20 mg/Kg",34.2 min
same,Tmax,"[3]; P.O, 20 mg/Kg",24 min
same,Cmax (maximum plasma concentration),"[3]; P.O, 100 mg/Kg",1600 ng/mL
same,T1/2 (terminal half-life),"[3]; P.O, 100 mg/Kg",21 min
same,Tmax,"[3]; P.O, 100 mg/Kg",24 min
same,BA (bioavailability),"[3]; P.O, 100 mg/Kg, (AUCpo/AUCiv)×100",7.5%
same,AUC(0-inf),[3]; [6],163 ng·h/mL
same,Cmax,[3]; [6],110 ng/mL
same,AUC(0-inf),[3]; [7],141 ng·h/mL
same,bioavailability,"[3]; mouse, plasma, po, P.O, 20 mg/Kg, (AUCpo/AUCiv)×100, read-out: BA (bioavailability)",4%
same,Cmax,[3]; [7],83 ng/mL
same,volume of lymphedema reduced by,[4],70%
same,"development of adipose tissue in the epidermal layer (H&E, FIG. 4A)",lymphedema tissue,inhibiting the development of adipose tissue in the epidermal layer
same,"neutrophil infiltration and epidermal layer of lymphedema tissue (H&E, FIG. 3A)",lymphedema tissue,decreased neutrophil infiltration and ameliorated the epidermal layer of lymphedema tissue
same,expression level of TNFα mRNA in lymphedema tissue (FIG. 3B),TNFα,decreased
same,distribution of PPARγ in the epidermal layer of lymphedema tissue (FIG. 4B),PPARγ,suppressed
same,levels of PPARγ and Fabp4 mRNA (FIG. 4D),[5]; lymphedema tissue,more significant efficacy even compared to compound 1
same,"expression of PPARγ and Fabp4 in lymphedema tissue (western blot, FIG. 4C)",[5],reduced the expression of PPARγ
same,melting point,,204.9 °C

# From patent publication US20230099567A1, “COMPOSITION FOR TREATMENT, PREVENTION, OR AMELIORATION OF LYMPHEDEMA” (RAPPELER CO., LTD., priority 2020, published 2023)
